Measurements: patent EP0007672A1, “Isocyanoalkenes, process and useful intermediates for their preparation, pharmaceutical and fungicidal preparations containing those isocyanoalkenes and the use of the fungicidal preparations in agriculture” (GIST-BROCADES N.V., priority 1978, dated 1980)
In brackets after ≈: the same amount, converted by molar mass. Like-named read-outs stand apart in the source and are kept apart here.

Key:
Test in all cases: MIC (Minimum Inhibitory Concentration)
Format in all cases: cell-based
Candida albicans = test system: Candida albicans
From the text: (§1) In addition they may be used for combatting plant diseases, in particular as fungicides. A list of MIC (Minimum Inhibitory Concentration) values for a number of microorganisms is listed herebelow. The figures in the column headings refer to the compounds prepared according to the experimental examples in comparison with the spectrum of 1-[2-(2,4-dichlorophenyl)-2-{(2,4-dichlorophenyl)-methoxy} -ethyl7-1H-imidazole (better known under the name of miconazole, c.f. Merck Index 9th Ed. page 6047) or natamycin (pimaricin, c.f. Merck Index 9th Ed. page 7233).

Pasteurella multocida = details: Pasteurella multocida, read-out: MIC values
From the text: as §1

[1] = test system: Streptococcus haemolyticus; details: Streptococcus, read-out: MIC values
From the text: as §1

Trichophyton equinum = test system: Trichophyton equinum
From the text: as §1

[2] = test system: Trichophyton mentagrophytus
From the text: as §1

Trichophyton quickeaneum = details: Trichophyton, read-out: MIC values
From the text: as §1

Trichophyton rubrum = test system: Trichophyton rubrum
From the text: as §1

[3] = test system: Trichophyton schoenleinii; details: Trichophyton schoenleinii, read-out: MIC values
From the text: as §1

[4] = test system: Trichophyton soudanese joyeux; details: Trichophyton, read-out: MIC values
From the text: as §1

Trichophyton verrucosum = test system: Trichophyton verrucosum
From the text: as §1

Trichophyton violoceum = details: Trichophyton, read-out: MIC values
From the text: as §1

SMILES: [C-]#[N+]C(=C1C2CC3CC(C2)CC1C3)S(=O)(=O)c1ccc(C)cc1 [Example 2, a-adamantylidene-a-(4-toluenesulphonyl) methylisocyanide]
- MIC (Candida albicans; read-out: MIC values, Candida albicans A 7): 0.8 µg/mL (≈ 2.44 µM)
- MIC (Candida albicans; read-out: MIC values, Candida albicans A 3140): 12.5 µg/mL (≈ 38.2 µM)
- MIC (Candida albicans; read-out: MIC values, Candida albicans A 3141): > 100 µg/mL
- MIC (Candida albicans; read-out: MIC values, Candida albicans A 3142): > 100 µg/mL
- MIC (Candida albicans; read-out: MIC values, Candida albicans A 3143): 0.8 µg/mL (≈ 2.44 µM)
- MIC (Candida albicans; read-out: MIC values, Candida albicans A 3144): > 100 µg/mL
- MIC (Candida albicans; read-out: MIC values, Candida albicans A 3145): > 100 µg/mL
- MIC (Candida albicans; read-out: MIC values, Candida albicans A 3165): 50 µg/mL (≈ 153 µM)
- MIC (Candida albicans; read-out: MIC values, Candida albicans A 3166): 50 µg/mL (≈ 153 µM)
- MIC (Candida albicans; read-out: MIC values, Candida albicans A 3167): 25 µg/mL (≈ 76.3 µM)
- MIC (Candida albicans; read-out: MIC values, Candida albicans A 3169): 1.5 µg/mL (≈ 4.58 µM)
- MIC (Candida albicans; read-out: MIC values, Candida albicans A 3171): > 100 µg/mL
- MIC (Candida albicans; read-out: MIC values, Candida albicans A 3184): 0.8 µg/mL (≈ 2.44 µM)
- MIC (Candida albicans; read-out: MIC values, Candida albicans A 3190): 100 µg/mL (≈ 305 µM)
- MIC (Candida albicans; read-out: MIC values, Candida albicans A 3192): 1.5 µg/mL (≈ 4.58 µM)
- MIC (Candida albicans; read-out: MIC values, Candida albicans A 3194): > 100 µg/mL
- MIC (Candida albicans; read-out: MIC values, Candida albicans A 3196): > 100 µg/mL
- MIC (Pasteurella multocida): > 100 µg/mL
- MIC [1]: 50 µg/mL (≈ 153 µM)
- MIC (Trichophyton equinum; read-out: MIC values, Trichophyton equinum 182-76): 50 µg/mL (≈ 153 µM)
- MIC (Trichophyton equinum; read-out: MIC values, Trichophyton equinum 441-51): 25 µg/mL (≈ 76.3 µM)
- MIC (Trichophyton equinum; read-out: MIC values, Trichophyton equinum 856-71): > 100 µg/mL
- MIC ([2]; read-out: MIC values, Trichophyton mentagrophytus 367-68): > 100 µg/mL
- MIC ([2]; read-out: MIC values, Trichophyton mentagrophytus 421-67): 50 µg/mL (≈ 153 µM)
- MIC ([2]; read-out: MIC values, Trichophyton mentagrophytus A 3252): > 100 µg/mL
- MIC ([2]; read-out: MIC values, Trichophyton mentagrophytus R 177): 100 µg/mL (≈ 305 µM)
- MIC ([2]; read-out: MIC values, Trichophyton mentagrophytus R 178): > 100 µg/mL
- MIC ([2]; read-out: MIC values, Trichophyton mentagrophytus RRL 305): 50 µg/mL (≈ 153 µM)
- MIC (Trichophyton quickeaneum): > 100 µg/mL
- MIC (Trichophyton rubrum; read-out: MIC values, Trichophyton rubrum 218-65): < 0.05 µg/mL
- MIC (Trichophyton rubrum; read-out: MIC values, Trichophyton rubrum 494-62): > 100 µg/mL
- MIC (Trichophyton rubrum; read-out: MIC values, Trichophyton rubrum A 810): 50 µg/mL (≈ 153 µM)
- MIC [3]: 25 µg/mL (≈ 76.3 µM)
- MIC [4]: 50 µg/mL (≈ 153 µM)
- MIC (Trichophyton verrucosum; read-out: MIC values, Trichophyton verrucosum 134-66): 25 µg/mL (≈ 76.3 µM)
- MIC (Trichophyton verrucosum; read-out: MIC values, Trichophyton verrucosum A 2922): < 0.05 µg/mL
- MIC (Trichophyton violoceum): 50 µg/mL (≈ 153 µM)
